“And” between values parts separate entries of the source, which are not always exact repeats. Identical values can stand only once. Toxic doses and inconclusive results are not listed. Rule as the data show it: active = T/C of 150% or more; inactive = T/C below 125%.
System: L1210 leukemia ip in BDF1 mice, survival T/C
Test: NCI In Vivo Anticancer Drug Screen. Data for tumor model L1210 Leukemia (intraperitoneal) in B6D2F1 (BDF1) mice
Conditions: endpoint: mean survival time, higher = longer survival
Outline: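 Transplantable tumor model; survival measured in treated vs vehicle control mice. Value = treated/control.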

[1] = dose: 100.0 mg/kg/injection, schedule: Q01DX009 (ip), vehicle: Klucel (hydroxypropylcellulose) (HPC)
[2] = dose: 200.0 mg/kg/injection, schedule: Q01DX009 (ip), vehicle: Klucel (hydroxypropylcellulose) (HPC)
[3] = dose: 100.0 mg/kg/injection, schedule: Q04DX003 (ip), vehicle: Klucel (hydroxypropylcellulose) (HPC)
[4] = dose: 200.0 mg/kg/injection, schedule: Q04DX003 (ip), vehicle: Klucel (hydroxypropylcellulose) (HPC)
[5] = dose: 400.0 mg/kg/injection, schedule: Q04DX003 (ip), vehicle: Klucel (hydroxypropylcellulose) (HPC)
[6] = dose: 100.0 mg/kg/injection, schedule: Q04DX003 (ip), vehicle: other
[7] = dose: 100.0 mg/kg/injection, schedule: Q04DX003 (ip), vehicle: saline with Tween-80
[8] = dose: 200.0 mg/kg/injection, schedule: Q04DX003 (ip), vehicle: saline with Tween-80
[9] = dose: 50.0 mg/kg/injection, schedule: Q01DX009 (ip), vehicle: Klucel (hydroxypropylcellulose) (HPC)
[10] = dose: 100.0 mg/kg/injection, schedule: Q01DX009 (ip), vehicle: saline with Tween-80
[11] = dose: 400.0 mg/kg/injection, schedule: Q01DX009 (ip), vehicle: saline with Tween-80
[12] = dose: 400.0 mg/kg/injection, schedule: Q04DX003 (ip), vehicle: saline with Tween-80
[13] = dose: 200.0 mg/kg/injection, schedule: Q01DX009 (ip), vehicle: saline with Tween-80

Measured: T/C

ONc1ccc(Cl)cc1
inactive: dose: 6.25 mg/kg/injection, schedule: Q01DX009 (ip), vehicle: gum acacia 105 % of control | dose: 12.5 mg/kg/injection, schedule: Q01DX001 (ip), vehicle: gum acacia 104 % of control | dose: 12.5 mg/kg/injection, schedule: Q01DX009 (ip), vehicle: gum acacia 100 % of control | dose: 12.5 mg/kg/injection, schedule: Q04DX003 (ip), vehicle: gum acacia 100 % of control | dose: 25.0 mg/kg/injection, schedule: Q01DX001 (ip), vehicle: gum acacia 104 % of control | dose: 25.0 mg/kg/injection, schedule: Q04DX003 (ip), vehicle: gum acacia 98 % of control | dose: 50.0 mg/kg/injection, schedule: Q01DX001 (ip), vehicle: gum acacia 100 % of control

CC(C)N(C(=O)c1ccccc1Cl)c1ccccc1
inactive: [1] 92 % of control | [2] 103 % of control | dose: 400.0 mg/kg/injection, schedule: Q01DX009 (ip), vehicle: Klucel (hydroxypropylcellulose) (HPC) 103 % of control

CCCCCCCCCCCC(O)CCCC (stereo unspecified)
inactive: [1] 90 % of control | [3] 96 % of control | [2] 95 % of control | [4] 91 % of control | [5] 90 % of control

CC(Br)(C(CC(=O)C1CC1)c1ccccc1)[N+](=O)[O-] (stereo unspecified)
inactive: dose: 25.0 mg/kg/injection, schedule: Q01DX009 (ip), vehicle: other 93 % of control | dose: 25.0 mg/kg/injection, schedule: Q04DX003 (ip), vehicle: other 100 % of control | dose: 50.0 mg/kg/injection, schedule: Q01DX001 (ip), vehicle: carboxymethylcellulose (CMC) 108 % of control | dose: 50.0 mg/kg/injection, schedule: Q01DX009 (ip), vehicle: other 89 % of control and 90 % of control | dose: 50.0 mg/kg/injection, schedule: Q04DX003 (ip), vehicle: other 96 % of control | dose: 100.0 mg/kg/injection, schedule: Q01DX001 (ip), vehicle: carboxymethylcellulose (CMC) 90 % of control | dose: 100.0 mg/kg/injection, schedule: Q01DX009 (ip), vehicle: other 91 % of control | [6] 93 % of control and 103 % of control | dose: 200.0 mg/kg/injection, schedule: Q01DX001 (ip), vehicle: carboxymethylcellulose (CMC) 92 % of control | dose: 400.0 mg/kg/injection, schedule: Q01DX001 (ip), vehicle: carboxymethylcellulose (CMC) 95 % of control

NC(CS(=O)c1ccc(Cl)cc1)C(=O)O (stereo unspecified)
inactive: [7] 97 % of control | [8] 92 % of control

CCOCCOCCCNCc1cnc2nc(N)nc(N)c2n1
inactive: dose: 10.0 mg/kg/injection, schedule: Q01DX009 (ip), vehicle: saline 97 % of control | dose: 20.0 mg/kg/injection, schedule: Q01DX009 (ip), vehicle: saline 103 % of control | dose: 40.0 mg/kg/injection, schedule: Q01DX009 (ip), vehicle: saline 103 % of control

O=c1cc(-c2ccc(Cl)cc2)oc(-c2ccc(Cl)cc2)c1
inactive: [9] 94 % of control | [1] 93 % of control | [3] 89 % of control | [4] 92 % of control

O=C(NC1CCCCC1)Sc1ccc(Cl)cc1
inactive: dose: 25.0 mg/kg/injection, schedule: Q01DX009 (ip), vehicle: Klucel (hydroxypropylcellulose) (HPC) 104 % of control | dose: 25.0 mg/kg/injection, schedule: Q04DX003 (ip), vehicle: Klucel (hydroxypropylcellulose) (HPC) 94 % of control | [9] 103 % of control | dose: 50.0 mg/kg/injection, schedule: Q04DX003 (ip), vehicle: Klucel (hydroxypropylcellulose) (HPC) 102 % of control | [1] 98 % of control | [3] 100 % of control and 108 % of control

Cc1ccc(Sc2cccc3c2C(=O)c2c(Sc4ccc(C)cc4)cccc2C3(Br)c2ccccc2)cc1
inactive: [10] 87 % of control | [7] 95 % of control | [8] 97 % of control | [11] 97 % of control | [12] 88 % of control

CN(C)c1ccccc1C(=O)N/N=C\c1ccc(O)c(O)c1
inactive: [10] 87 % of control | dose: 100.0 mg/kg/injection, schedule: Q04DX002 (ip), vehicle: saline with Tween-80 94 % of control | [13] 87 % of control | dose: 200.0 mg/kg/injection, schedule: Q04DX002 (ip), vehicle: saline with Tween-80 94 % of control | [11] 90 % of control | dose: 400.0 mg/kg/injection, schedule: Q04DX002 (ip), vehicle: saline with Tween-80 90 % of control

O=C1NCCN1c1cccc([N+](=O)[O-])c1
inactive: dose: 25.0 mg/kg/injection, schedule: Q01DX009 (ip), vehicle: saline with Tween-80 108 % of control | dose: 50.0 mg/kg/injection, schedule: Q01DX009 (ip), vehicle: saline with Tween-80 103 % of control | dose: 100.0 mg/kg/injection, schedule: Q01DX001 (ip), vehicle: Klucel (hydroxypropylcellulose) (HPC) 96 % of control | [10] 98 % of control

c1ccc(CNNCc2ccccc2)cc1
inactive: dose: 75.0 mg/kg/injection, schedule: Q01DX009 (ip), vehicle: Klucel (hydroxypropylcellulose) (HPC) 102 % of control | [3] 102 % of control | dose: 150.0 mg/kg/injection, schedule: Q01DX009 (ip), vehicle: Klucel (hydroxypropylcellulose) (HPC) 109 % of control | [4] 94 % of control

O=[N+]([O-])c1cc([N+](=O)[O-])c(Br)cc1F
inactive: dose: 2.5 mg/kg/injection, schedule: Q01DX009 (ip), vehicle: Klucel (hydroxypropylcellulose) (HPC) 92 % of control | dose: 5.0 mg/kg/injection, schedule: Q01DX009 (ip), vehicle: Klucel (hydroxypropylcellulose) (HPC) 99 % of control

CCOC(=O)Cc1ccc2c(c1)sc(=S)n2C
inactive: [3] 96 % of control | [4] 87 % of control | [5] 92 % of control

C=CSCCCCCCCC
inactive: [6] 103 % of control | dose: 200.0 mg/kg/injection, schedule: Q04DX003 (ip), vehicle: other 97 % of control | dose: 400.0 mg/kg/injection, schedule: Q04DX003 (ip), vehicle: other 97 % of control

COc1ccc(NC(=O)C2C3C=CC(C3)C2C(=O)Nc2ccc(OC)cc2)cc1 (stereo unspecified)
inactive: [7] 100 % of control | [8] 87 % of control | [12] 91 % of control

COc1ccc(OC)c(C(C)(O)CC(=O)O)c1 (stereo unspecified)
inactive: [10] 100 % of control | [7] 96 % of control | [13] 105 % of control | [8] 93 % of control | [11] 97 % of control | [12] 101 % of control

CN(C)CCN=C(N)N[N+](=O)[O-]
inactive: dose: 100.0 mg/kg/injection, schedule: Q04DX002 (ip), vehicle: saline 110 % of control | dose: 200.0 mg/kg/injection, schedule: Q04DX002 (ip), vehicle: saline 96 % of control | dose: 400.0 mg/kg/injection, schedule: Q04DX002 (ip), vehicle: saline 100 % of control

CC(=O)OC1CCC2(C)C(=CCC3C2CCC2(C)C3CC3C(c4ccccc4Cl)=NN(c4ccccc4)C32C#N)C1 (stereo unspecified)
inactive: dose: 100.0 mg/kg/injection, schedule: Q04DX002 (ip), vehicle: Klucel (hydroxypropylcellulose) (HPC) 95 % of control | dose: 200.0 mg/kg/injection, schedule: Q04DX002 (ip), vehicle: Klucel (hydroxypropylcellulose) (HPC) 95 % of control | dose: 400.0 mg/kg/injection, schedule: Q04DX002 (ip), vehicle: Klucel (hydroxypropylcellulose) (HPC) 95 % of control

CCC1CN2CCc3cc(OC)c(OC)cc3C2CC1CC1c2cc(OC)c(OC)cc2CCN1C(=O)C1CCCN1 (stereo unspecified)
inactive: dose: 50.0 mg/kg/injection, schedule: Q01DX001 (ip), vehicle: saline 95 % of control | dose: 100.0 mg/kg/injection, schedule: Q01DX001 (ip), vehicle: saline 111 % of control | dose: 200.0 mg/kg/injection, schedule: Q01DX001 (ip), vehicle: saline 95 % of control

Nc1nc(N)c(CCCCc2ccccc2)c(C=O)n1
inactive: [1] 98 % of control

Reference: PubChem BioAssay AID248 (DTP/NCI, 2004)
